Measurements: patent US20120010178A1, “METHODS AND COMPOUNDS FOR TREATMENT OF NEURODEGENERATIVE DISORDERS” (PRESIDENT AND FELLOWS OF HARVARD COLLEGE, priority 2008, published 2012)
Entries after “also recorded” stand apart in the source; their conditions may differ.

Legend:
SMN [1] = assay: High-content fibroblast screen for compounds that modulate SMN level; conditions: for SMN level in fibroblast screen (increase or decrease): human fibroblasts, 2-3 days with compound;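 on all read-outs here: Anti-SMN immunostaining with confocal imaging of nuclear and cytoplasmic SMN and gem counts, tested at 0.1, 1 and 10 uM, fold change relative to negative control wells on each plate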
Experimental: Human fibroblasts were incubated for 2-3 days with compounds from annotated collections. Cells were fixed and stained with an anti-SMN antibody. Confocal imaging was used to quantify SMN fluorescence in nucleus and cytoplasm and count Gems. Data were collected and subsequently analyzed by clustering compounds by suspected mechanism of action and chemical structure.
Following optimization of assay conditions on day 0, total of 500 human fibroblasts (GM09677 line) per well were seeded in 384-well plates, on day 3 they were treated with compounds (robot CyBio) from the annotated collections and on the 5 day plates were fixed and stained (robot MAPD) with an anti-SMN antibody and secondary antibody conjugated with 448 fluorophore (FIG. 19a). Compounds from the libraries were added in duplicate at three final concentrations of 10, 1 and 0.1 uM.
SMN detection was done on the automated confocal microscope Opera PerkinElmer with separate fluorescent exposures to 488 nM laser for and a UV light source to detect nuclei stained with Hoechst 33258 with a 20× objective.
After scanning on the Opera, an XML file extraction workflow, designed with Inforsense KDE, was used to assemble the data from multiple replicate plates of each HCS experiment including the quantitative parameters described above and chemical identities, chemical concentrations and indications of which wells were used for positive and negative controls. […] The fold-induction of SMN intensity values for each well treated with a library chemical were normalized to the SMN average intensity in multiple negative control wells per plate.
Since it is not known which form of SMN increase is the most essential, hits that scored in a duplicate at least in two different parameters greater than 1.3 fold at any of the three concentrations were selected (FIG. 19d). […] Further, 220 compounds were screened in the absence of anti-SMN primary antibody with the same assay conditions, to filter out the fluorescent compounds.

SMN [2] = assay: SMN immunofluorescence quantification (cytoplasm, nucleus, GEMs) in fibroblasts from SMA patients; format: cell-based, human; conditions: for levels of cytoplasmic and nuclear SMN (in words) / Avg. SMN fold increase: SMA patient fibroblasts; for levels of cytoplasmic and nuclear SMN (in words): substance alone; for decrease of basal level of SMN: added to the regular serum media in which cells are maintained, no added PDGF; for Avg. SMN fold increase: human PDGF isoforms
Experimental: Specifically, fibroblasts from patients suffering from SMA were treated with Ionomycin (a channel modulator), Ouabain (a cardiac glycoside and channel modulator), PDGF, SAHA (an HDAC inhibitor), Lactacystin (a proteasome inhibitor) or WIN 55,212-2 (a cannabinoid receptor […] and GPCR ligand) for 72 hours. The cells were fixed with methanol/acetone and stained with Pharmingen BD antibodies, followed by 488 AlexaFluor staining. Images were obtained with 60× lens on Zeiss LSM510 META on an inverted confocal microscope.
For example, fibroblasts from patients suffering from SMA were treated with Ouabain, Digoxin or Lanatoside at a concentration of 0, 2.5 nM, 5 nM, 10 nM, 20 nM, 40 nM, 80 nM, […] for 72 hours. The cells were fixed with methanol/acetone and stained with Pharmingen BD antibodies, followed by 488 AlexaFluor staining. Images were obtained with 60× lens on Zeiss LSM510 META on an inverted confocal microscope.
An assay was established for high-content evaluation of SMN protein level in different cellular compartments after treatment with small molecules. SMN protein was visualized by immunofluorescent staining and multiple fields from each plate well were scanned by an automated confocal Opera microscope. […] For each well, the algorithm generated quantitative parameters representing number of cells, as well as SMN fluorescent intensity per cell in cytoplasm, nucleus, number and intensity of GEMs (FIG. 15). […] During the assay transfer to the robotic platform fixation with the ice cold methanol was technically limited, therefore to preserve the maximum possible window we chose to perform the screen on parental fibroblast with PFA fixation.
For fibroblast assays, human fibroblasts lines GM09677 (derived from patient with SMA type 1 disease) and GM03814 (derived from unaffected parental SMA carriers) were used (Coriell Cell Repositories). […] For secondary assays cells from GM09677 line were used.
Fibroblasts were grown in MEM media (Invitrogen) supplemented with 5% Fetal Bovine Serum (FBS, Invitrogen), 2 mM glutamine and 1% penicillin-streptomycin (100 U/ml) in a presence of 5% CO2 at 37° C. For drug treatments, cells were plated and treated 24 h later with 10 μM MG132 (Biomol International), […] Calpeptin (Biomol International), 10 mM ammonium chloride, 1 μM myristoylated PKI, or vehicle for the designated times.
(§1) Compounds were stored at appropriate temperature and dissolved accordingly to the manufacturers (Tocris, Enzo, EMD and Sigma-Aldrich) in DMSO (Sigma-Aldrich), unless stated otherwise (Monensin Na in EtOH, DMPQ in water). Growth factors and PDGF neutralizing antibodies (R&D Systems) were reconstituted with buffers recommended by the supplier. For generation of the dose curves, 1×10^3 fibroblasts were plated on to 96-well Greiner Senso plates (VWR) and treated with compounds on the second day then fixed and stained at the indicated time points. For GSK inhibitors and performing p-GSK3b(Ser9) detection, two days after plating growth media containing 5% FBS was replaced to the media with FBS reduced down to 0.5%, to starve cells for 72 hours. Addition of the GSK inhibitors was done in 5% FBS enriched media.

SMN [3] = assay: Inhibition of PDGF-stimulated SMN increase in fibroblasts by kinase/receptor inhibitors; format: cell-based, human; conditions: for SMN Cytoplam (inhibition of PDGF-stimulated SMN increase) / SMN GEM Intensity (inhibition of PDGF-stimulated SMN increase) / SMN Nuclear (inhibition of PDGF-stimulated SMN increase): inhibitor at the concentration (nM), fibroblast stimulation with PDGF; for PDGF-stimulated SMN increase in presence of inhibitor (in words): SMA patient fibroblasts, PDGF plus inhibitor or neutralizing antibody; for Cell Number (affected by inhibitor): inhibitor at the concentration of the table row, PDGF stimulated fibroblasts; for PDGF-stimulated SMN increase in the cytoplasm in presence of inhibitor (in words) / PDGF-stimulated SMN increase in the nucleus in presence of inhibitor (in words): pre-treatment with p38 inhibitor
Experimental: Fibroblasts from patients suffering from SMA were treated with PDGF at a concentration of 0, 0.3 ng/ml, 0.63 ng/ml, 1.25 ng/ml, 2.5 ng/ml, 5 ng/ml, 10 ng/ml or 20 ng/ml, in the absence or in the presence of 25 uM DMPQ or 25 uM AG-1296 respectively for 72 hours. The levels of both cytoplasmic and nuclear SMN were detected and quantified using the method described in Example 2.
(§2) Fibroblasts from patients suffering from SMA were either control treated or treated with PDGF at a concentration of 0, 0.63 ng/ml, 1.25 ng/ml, 2.5 ng/ml, 5 ng/ml, 10 ng/ml or 20 ng/ml, in the absence or in the presence of 50 uM LY294002 or 2 uM P1-103 respectively for 72 hours. The levels of both cytoplasmic and nuclear SMN were detected and quantified using the method described in Example 2.
as §2, with “of” for “of 50 uM LY294002 or”, “uM Papamycin” for “uM P1-103 respectively”, “Example x.” for “Example 2.”
A range of concentrations were tested in order not to miss the effects. SMN level were evaluated by Opera Evoteck in each cellular compartment and to assess the cell numbers that are summarized in the Table 3.
as §1, with “media. As previously described, starvation increases levels of constitutively activate GSK3b kinase, allowing to achieve a more dramatic inhibitory effect when GSK inhibitors are added together with growth factors that are also known to inhibit GSK by Ser-9 phosphorylation. […] For all compounds and growth factors control wells received solvent in amount equivalent to the highest concentration of the compound in a dose curve. For PDGF inhibitory studies, cells were pre-treated with kinase inhibitors for 2 hours and PDGF was added with a fresh kinase inhibitor solution and incubated for an additional 3 days.” for “media.”

| Molecule | SMN level in fibroblast screen (increase or decrease) (SMN [1]) | SMN Cytoplam (inhibition of PDGF-stimulated SMN increase) (SMN [3]) | SMN GEM Intensity (inhibition of PDGF-stimulated SMN increase) (SMN [3]) | SMN Nuclear (inhibition of PDGF-stimulated SMN increase) (SMN [3]) | also measured |
| --- | --- | --- | --- | --- | --- |
| CCCCC/C=C\C/C=C\C/C=C\C/C=C\CCCC(=O)NCCO [Anandamide] | increase SMN | – | – | – | – |
| COc1ccc(C[C@H]2NC[C@H](O)[C@H]2OC(C)=O)cc1 [Anysomycin] | increase SMN | – | – | – | concentration at which SMN level was increased (SMN [1]; during screening): 0.1 µM |
| COC(=O)C1=C(C)NC(C)=C([N+](=O)[O-])C1c1ccccc1C(F)(F)F (stereo not shown) [Bay K8644] | – | – | – | – | levels of cytoplasmic and nuclear SMN (in words) (SMN [2]): not active |
| Cc1c[nH]c(-c2cnc(NCCNc3ccc(C#N)cn3)nc2-c2ccc(Cl)cc2Cl)n1 [CHIR99021] | – | – | – | – | levels of cytoplasmic and nuclear SMN (in words) (SMN [2]): increase SMN levels; also recorded: Most active compounds |
| CC(=O)C1=C(O)[C@@H]2[C@H]3c4c[nH]c5cccc(c45)C[C@H]3C(C)(C)N2C1=O [Cyclopiazonic acid] | – | – | – | – | levels of cytoplasmic and nuclear SMN (in words) (SMN [2]): not active |
| C[C@H]1O[C@@H](O[C@H]2[C@@H](O)C[C@H](O[C@H]3[C@@H](O)C[C@H](O[C@H]4CC[C@@]5(C)[C@H](CC[C@@H]6[C@@H]5C[C@@H](O)[C@]5(C)[C@@H](C7=CC(=O)OC7)CC[C@]65O)C4)O[C@@H]3C)O[C@@H]2C)C[C@H](O)[C@@H]1O [Digoxin] | increase SMN | – | – | – | – |
| OCCN(CCO)c1nc(N2CCCCC2)c2nc(N(CCO)CCO)nc(N3CCCCC3)c2n1 [Dipyridamole] | increase SMN | – | – | – | – |
| C[C@H]1O[C@@H](O[C@H]2[C@@H](O)C[C@H](O[C@H]3[C@@H](O)C[C@H](O[C@H]4CC[C@@]5(C)[C@H](CC[C@@H]6[C@@H]5CC[C@]5(C)[C@@H](C7=CC(=O)OC7)CC[C@]65O)C4)O[C@@H]3C)O[C@@H]2C)C[C@H](O)[C@@H]1O [Dititoxin] | increase SMN | – | – | – | – |
| O=C1Nc2ccc3ncsc3c2/C1=C/Nc1ccc(S(=O)(=O)Nc2ccccn2)cc1 [GW8510] | SMN is increase | – | – | – | – |
| O=C(Nc1cc(C(F)(F)F)cc(C(F)(F)F)c1)c1cc(Cl)ccc1O [IMD-0354] | SMN is increase | – | – | – | – |
| O=c1cc(N2CCOCC2)oc2c(-c3ccccc3)cccc12 [LY294002] | – | 100% | 100% | 100% | decrease of basal level of SMN (SMN [2]): 40%; reduction of SMN (SMN [2]; combinatory treatment of 0.5% serum and PI-3 kinase inhibitor, patient cells): 20% |
| CC(=O)O[C@H]1C[C@H](O[C@H]2[C@@H](O)C[C@H](O[C@H]3[C@@H](O)C[C@H](O[C@H]4CC[C@@]5(C)[C@H](CC[C@@H]6[C@@H]5C[C@@H](O)[C@]5(C)[C@@H](C7=CC(=O)OC7)CC[C@]65O)C4)O[C@@H]3C)O[C@@H]2C)O[C@H](C)[C@H]1O[C@@H]1O[C@H](CO)[C@@H](O)[C@H](O)[C@H]1O [Lanatoside C] | increase SMN | – | – | – | – |
| COc1cccc(-c2cc(=O)c3ccccc3o2)c1N [PD98059] | – | 20% | 20% | 20% | PDGF-stimulated SMN increase in presence of inhibitor (in words) (SMN [3]): only partially inhibited; Cell Number (affected by inhibitor) (SMN [3]): Yes |
| CO[C@H]1C[C@@H]2CC[C@@H](C)[C@@](O)(O2)C(=O)C(=O)N2CCCC[C@H]2C(=O)O[C@H]([C@H](C)C[C@@H]2CC[C@@H](O)[C@H](OC)C2)CC(=O)[C@H](C)/C=C(\C)[C@@H](O)[C@@H](OC)C(=O)[C@H](C)C[C@H](C)/C=C/C=C/C=C/1C [Rapamycin] | – | 80% | 80-100% | 80-100% | – |
| Oc1ccc(-c2nc(-c3ccc(F)cc3)c(-c3ccncc3)[nH]2)cc1 [SB202190] | – | 20% | some | 0% | Cell Number (affected by inhibitor) (SMN [3]): Yes; PDGF-stimulated SMN increase in the cytoplasm in presence of inhibitor (in words) (SMN [3]): able to prevent SMN increase induced by PDGF; also recorded: partial inhibition of SMN in the cytoplasm; PDGF-stimulated SMN increase in the nucleus in presence of inhibitor (in words) (SMN [3]): not in the nucleus; also recorded: leaving nuclear SMN unaffected |
| C[S+]([O-])c1ccc(-c2nc(-c3ccc(F)cc3)c(-c3ccncc3)[nH]2)cc1 (stereo not shown) [SB203580, 4-(4-Fluorophenyl)-2-(4-methylsulfinylphenyl)-5-(4-pyridyl)-1H-imidazole] | – | 20% | some | 0% | Cell Number (affected by inhibitor) (SMN [3]): Yes; PDGF-stimulated SMN increase in the cytoplasm in presence of inhibitor (in words) (SMN [3]): able to prevent SMN increase induced by PDGF; also recorded: partial inhibition of SMN in the cytoplasm; PDGF-stimulated SMN increase in the nucleus in presence of inhibitor (in words) (SMN [3]): not in the nucleus; also recorded: leaving nuclear SMN unaffected |
| CC(=O)O[C@@H]1[C@@H](OC(C)=O)[C@@H](O)[C@H](Oc2c(-c3ccc(O)cc3)oc3cc(O)cc(O)c3c2=O)O[C@H]1C [SL-0101] | – | 20% | 20% | 20% | PDGF-stimulated SMN increase in presence of inhibitor (in words) (SMN [3]): didn't have an inhibitory effect |
| N#CC(=C(/N)Sc1ccccc1N)/C(C#N)=C(\N)Sc1ccccc1N [U0126] | – | 20-30% ^ | 10% | 10% | PDGF-stimulated SMN increase in presence of inhibitor (in words) (SMN [3]): only partially inhibited; Cell Number (affected by inhibitor) (SMN [3]): No |
| DMSO | – | – | – | – | decrease of basal level of SMN (SMN [2]): 20% |
| FGF2: fibroblast growth factor, RTK ligand | – | – | – | – | levels of cytoplasmic and nuclear SMN (in words) (SMN [2]): increases SMN levels; levels of cytoplasmic and nuclear SMN (in words) (SMN [2]; listed as bFGF): active |
| PDGF-AA rec.: recombinant PDGF-AA | – | – | – | – | Avg. SMN fold increase (SMN [2]): 1.3-1.4 fold |
| PDGF-AB rec.: recombinant PDGF-AB | – | – | – | – | Avg. SMN fold increase (SMN [2]): 1.7-1.9 fold |
| Ryanodine | – | – | – | – | levels of cytoplasmic and nuclear SMN (in words) (SMN [2]): weak effect |
